Common to all, as to assay: Bliss excess, mean over the matrix (fraction); higher = more synergy
The test system of assay [1] is D-283MED (Other Solid Carcinomas). In a few lines:
(§1)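 Cell lines in DMEM/F12 or RPMI with 10% FBS were plated in 1536-well plates, held 24 hours at 37°C, 5% CO2, then given two-drug dose matrices for 72 hours (DMSO typically 0.2%). Viability was read by CellTiter-Glo 2.0 luminescence and scaled as inhibition from 0 (vehicle wells) to 1 (blank wells). Combination Emax is the second-highest inhibition in the matrix; Bliss excess is observed combination effect minus expected EA + EB − EA·EB, EA and EB being single-agent effects.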

Assay [2] relates to EFM-192A (Breast Carcinoma). In outline:
as §1

Assay [3] relates to EKVX (Non-Small Cell Lung Carcinoma). In a few lines:
as §1

Another assay concerns EW-22 (Ewing's Sarcoma). In a few lines:
as §1

In another assay the test system is H4 (Low Grade Glioma). In outline:
as §1

Assay [4] relates to HCT-116 (Colorectal Carcinoma). In a few lines: as §1
In another assay the test system is MCF7 (Breast Carcinoma). In a few lines:
as §1

The test system of assay [5] is MES-SA (Other Solid Carcinomas). In a few lines:
as §1

The test system of assay [6] is NOMO-1 (Acute Myeloid Leukemia). In a few lines: as §1
In assay [7] the test system is SK-UT-1 (Other Solid Carcinomas). In a few lines: as §1
Assay [8] has as its system YT (Other Blood Carcinomas). In outline:
as §1

Assay [9] relates to SW948 (Colorectal Carcinoma). In outline:
as §1

In the case of `C=CCn1c(=O)c2cnc(Nc3ccc(N4CCN(C)CC4)cc3)nc2n1-c1cccc(C(C)(C)O)n1` [AZD1775] + O=C(c1cc(Cc2n[nH]c(=O)c3ccccc23)ccc1F)N1CCN(C(=O)C2CC2)CC1 [Olaparib] (first compound max 1 µM, partner max 10 µM), the Bliss excess in assay [1] is 0.0079; in assay [2], -0.0307; in assay [3], -0.0564; in the assay on EW-22 (Ewing's Sarcoma), 0.0148; with H4 (Low Grade Glioma), -0.12; in assay [4], -0.0239. For the same compound, the Bliss excess with MCF7 (Breast Carcinoma) was 0.003; in [5], -0.0694; in [6], -0.027; in assay [7] it was -0.0148; in assay [8] it was -0.008.
As for `CCN(CCO)CCCOc1ccc2c(Nc3cc(CC(=O)Nc4cccc(F)c4)[nH]n3)ncnc2c1` [AZD2811] + C=CCn1c(=O)c2cnc(Nc3ccc(N4CCN(C)CC4)cc3)nc2n1-c1cccc(C(C)(C)O)n1 [AZD1775] (first compound max 1 µM, partner max 1 µM), the Bliss excess in [1] is 0.0452; in assay [2] it was -0.0883; in [3] it was -0.0599; with EW-22 (Ewing's Sarcoma) it was 0.0527; in the assay with H4 (Low Grade Glioma) it was -0.0637; in assay [4], 0.0524. The Bliss excess with MCF7 (Breast Carcinoma) is 0.0165; in [5] it was 0.0752; in assay [6], 0.0412; in [7], 0.108; in assay [8], 0.0367.
On to `CCN(CCO)CCCOc1ccc2c(Nc3cc(CC(=O)Nc4cccc(F)c4)[nH]n3)ncnc2c1` [AZD2811] + C[C@@H]1COCCN1C2=NC(=NC(=C2)C3(CC3)[S@](=N)(=O)C)C4=C5C=CNC5=NC=C4 [AZD6738] (first compound max 1 µM, 7x7, partner max 10 µM), for which the Bliss excess in [1] is -0.0541; in assay [2] it was -0.0201; in assay [3] it was -0.0558; in the assay on EW-22 (Ewing's Sarcoma), -0.0503; with H4 (Low Grade Glioma), -0.0536; in assay [4] it was -0.0825. The Bliss excess in the assay with MCF7 (Breast Carcinoma) is -0.0565; in [5], -0.0328; in assay [6] it was -0.0118; in assay [7], 0.0317; in assay [8] it was -0.0204.
On to `CCN(CCO)CCCOc1ccc2c(Nc3cc(CC(=O)Nc4cccc(F)c4)[nH]n3)ncnc2c1` [AZD2811] + O=C(c1cc(Cc2n[nH]c(=O)c3ccccc23)ccc1F)N1CCN(C(=O)C2CC2)CC1 [Olaparib] (first compound max 1 µM, 7x7, partner max 10 µM), for which the Bliss excess is -0.0234 in assay [1]; 0.0138 in assay [2]; -0.0303 in [3]; -0.0612 with EW-22 (Ewing's Sarcoma); -0.0046 with H4 (Low Grade Glioma); -0.0109 in assay [4]. The Bliss excess is -0.0023 with MCF7 (Breast Carcinoma); 0.0754 in assay [5]; 0.0454 in [6]; 0.0453 in assay [7]; 0.0623 in assay [8].
Regarding `CN(CCO)CC[C@H](CSc1ccccc1)Nc1ccc(S(=O)(=O)NC(=O)c2ccc(N3CCC([C@@H](O)c4ccccc4-c4ccc(Cl)cc4)CC3)cc2)cc1S(=O)(=O)C(F)(F)F` [AZD4320] + C1CN(CCC1(C(=O)N[C@@H](CCO)C2=CC=C(C=C2)Cl)N)C3=NC=NC4=C3C=CN4 [Capivasertib] (first compound max 1 µM, 7x7, partner max 3 µM), the Bliss excess in assay [1] is 0.0139; in [2], -0.0269; in [3], -0.0309; in the assay with EW-22 (Ewing's Sarcoma), -0.0341; with H4 (Low Grade Glioma) it was -0.0397; in [4] it was -0.0366. Also, the Bliss excess in the assay with MCF7 (Breast Carcinoma) is -0.0383; in [5], -0.0088; in [6] it was -0.0012; in assay [7], -0.0006; in assay [9] it was -0.0497; in assay [8] it was 0.0135.
As to `CN(CCO)CC[C@H](CSc1ccccc1)Nc1ccc(S(=O)(=O)NC(=O)c2ccc(N3CCC([C@@H](O)c4ccccc4-c4ccc(Cl)cc4)CC3)cc2)cc1S(=O)(=O)C(F)(F)F` [AZD4320] + C=CCn1c(=O)c2cnc(Nc3ccc(N4CCN(C)CC4)cc3)nc2n1-c1cccc(C(C)(C)O)n1 [AZD1775] (first compound max 1 µM, partner max 1 µM), the Bliss excess in assay [1] is -0.0122; in [2], 0.0171; in [3], -0.0382; in the assay with EW-22 (Ewing's Sarcoma) it was 0.0897; in the assay with H4 (Low Grade Glioma) it was 0.0551; in [4], -0.0294. Besides, the Bliss excess was -0.0008 in the assay with MCF7 (Breast Carcinoma); -0.0017 in assay [5]; 0.0233 in assay [6]; 0.0431 in assay [7]; 0.0744 in assay [9]; -0.0156 in assay [8].
For the compound `C[C@@H]1COCCN1c1cc(C2([S@](C)(=N)=O)CC2)nc(-c2ccnc3[nH]ccc23)n1` [AZD6738] + O=C(c1cc(Cc2n[nH]c(=O)c3ccccc23)ccc1F)N1CCN(C(=O)C2CC2)CC1 [Olaparib] (first compound max 10 µM, 7x7, partner max 10 µM), the Bliss excess is -0.0148 in assay [1]; 0.0387 in [2]; 0.0206 in assay [3]; 0.02 in the assay with EW-22 (Ewing's Sarcoma); 0.0238 in the assay with H4 (Low Grade Glioma); 0.0928 in [4]. Besides, the Bliss excess in the assay with MCF7 (Breast Carcinoma) is 0.0135; in [5], -0.0519; in [6], -0.0031; in [7], 0.0408; in [8], -0.0376.
Take `Cc1cc2ncnn2cc1Nc1ncc2c(n1)n(C1CCOCC1)c(=O)n2C` [AZD7648] + O=C(c1cc(Cc2n[nH]c(=O)c3ccccc23)ccc1F)N1CCN(C(=O)C2CC2)CC1 [Olaparib] (first compound max 10 µM, 7x7, partner max 10 µM): the Bliss excess in assay [1] is -0.0398; in assay [2] it was -0.0533; in assay [3], -0.0563; in the assay with EW-22 (Ewing's Sarcoma) it was -0.0664; with H4 (Low Grade Glioma) it was 0.0404; in assay [4], -0.0502. Moreover, the Bliss excess in the assay on MCF7 (Breast Carcinoma) is -0.0625; in [5] it was 0.06; in assay [6], -0.0359; in assay [7] it was -0.0331; in assay [8], -0.0004.

Values taken from the supplement of paper PMC11061612.
